Results as given in article PMC12910498 (ACS pharmacology & translational science, 2026).
Where two headings read alike, the source gives them in different places.

Columns and labels:
human D4R [1] = target: T1, human D4R (Homo sapiens, UniProt P21917); settings: for D4R Ant. (%): cAMP, antagonist mode, 10 μM forskolin and 10 nM dopamine, normalized to spiperone; for Emax: read-out: D4R Emax (%)
T1 sequence (P21917 1-419): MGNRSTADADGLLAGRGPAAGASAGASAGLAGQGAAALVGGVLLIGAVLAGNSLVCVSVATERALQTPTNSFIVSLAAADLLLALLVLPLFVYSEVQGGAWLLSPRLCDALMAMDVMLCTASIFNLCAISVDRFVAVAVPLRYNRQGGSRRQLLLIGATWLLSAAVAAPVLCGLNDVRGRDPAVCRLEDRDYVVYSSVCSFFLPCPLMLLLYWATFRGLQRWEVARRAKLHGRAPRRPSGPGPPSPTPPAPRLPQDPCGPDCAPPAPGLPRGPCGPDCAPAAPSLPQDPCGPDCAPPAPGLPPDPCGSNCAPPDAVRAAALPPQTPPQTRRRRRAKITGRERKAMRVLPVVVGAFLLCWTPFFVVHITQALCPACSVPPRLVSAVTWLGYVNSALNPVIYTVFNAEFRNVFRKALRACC

[2] = Phase I metabolic stability in human liver microsomes (with NADPH); assay type: in vitro ADME; settings: pH 7.4, presence of NADPH, mean ± SD, n = 3
Procedure: (§1) We evaluated the Phase I metabolic stability of compounds 2−7 and 14−19 using rat and human liver microsomes, as previously described.[45]
(§2) Phase I metabolic stability assays were conducted using rat and human liver microsomes as previously described[45],[70] with minor modifications. In brief, the reactions were carried out with 100 mM potassium phosphate buffer, pH 7.4, in the presence of NADPH regenerating system (1.3 mM NADPH, 3.3 mM glucose 6-phosphate, 3.3 mM MgCl2, 0.4 U/mL glucose-6-phosphate dehydrogenase, 50 μM sodium citrate). Negative controls without cofactors were assessed to determine the non-CYP-mediated metabolism. Compound disappearance was monitored over time using a liquid chromatography and tandem mass spectrometry (LC/MS) method. All reactions were performed in triplicate.
(§3) Chromatographic analysis was performed on a Dionex ultra high-performance LC system coupled with Q Exactive Focus orbitrap mass spectrometer (Thermo Fisher Scientific Inc., Waltham MA). Separation was achieved using Agilent Eclipse Plus column (100 × 2.1 mm^2 i.d.; maintained at 35 °C) packed with a 1.8 μm C18 stationary phase. […] The total run time for each analyte was 6.5 min. Pumps were operated at a flow rate of 0.3 mL/min. The mass spectrometer controlled by Xcalibur software 4.0.27.13 (Thermo Scientific) was operated with a HESI ion source in positive ionization mode. Compounds were identified in the full-scan mode (from m/z 50 to 750) by comparing t = 0 samples with t = 30 min and t = 60 min samples.

human D4R [3] = target: T1, human D4R; experiment: DiscoverX PathHunter β-arrestin recruitment assay, D4R; settings: for D4R average activity at the highest tested dose: at 100 μM (Emax ND); for D4R Ant. (%): antagonist mode, EC80 dopamine (1 μM), normalized to spiperone
human D2R long isoform = human D2R long isoform (Homo sapiens, UniProt P14416); experiment: DiscoverX PathHunter β-arrestin recruitment assay, D2R; settings: for Emax: read-out: D2R Emax (%)
[4] = Phase I metabolic stability in rat liver microsomes (with NADPH); assay type: in vitro ADME; settings: pH 7.4, presence of NADPH, mean ± SD, n = 3
Procedure: as §1, §2, §3

human D3R = human D3R (Homo sapiens, UniProt P35462); experiment: DiscoverX PathHunter β-arrestin recruitment assay, D3R; settings: for D3R Ant. (%): antagonist mode, EC80 dopamine (1 μM), normalized to spiperone; for Emax: read-out: D3R Emax (%)
D5 = target: T2, D5 (Homo sapiens, UniProt P21918); experiment: PDSP primary screen, D5; assay type: binding; settings: 10 µM compound
T2 construct: Psychoactive Drug Screening Program (PDSP)
Source text: (§4) Receptor Primary Secondary Primary Secondary Primary Secondary Primary Secondary screen assay screen assay screen assay screen assay […]
(§5) inhibition in primary assessment.

[5] = Pharmacokinetics study in rats (plasma and brain); assay type: in vivo, Sprague−Dawley rats; settings: rat, 5 mg/kg IP; for Kp / half-life / Tmax / AUC / Cmax: Sprague-Dawley; for Kp: brain and plasma, AUC brain/plasma, read-out: brain: Plasma ratio; for Kp / half-life: ip; for peak in vivo brain concentrations expected: from brain Cmax
Procedure: Given their adequate in vitro stability profiles, we next evaluated the in vivo pharmacokinetic profiles of 14, 15, 17, and 18 in rats. Sprague−Dawley rats were dosed with 5 mg/kg (14, 15, 17) or 10 mg/kg (18), i.p., and plasma and brain levels of each drug were measured 0−6 h postdose.
All animal experiments were performed following the protocols evaluated and approved by the Animal Care and Use Committee at Johns Hopkins University (Ethics Approval Number: RA24M403). Pharmacokinetic studies in Sprague−Dawley (SD) rats were conducted according to protocols approved. SD rats obtained from Harlan were maintained on a 12 h light−dark cycle with ad libitum access to food and water. Test compound was administered via i.p. injection at a dose of 10 mg/kg (100% saline vehicle, 10 mL/kg volume). The rats were sacrificed at specified time points (0.25, 0.5 h, 1, 2, 4, and 6 h) post drug administration. For the collection of plasma and brain tissue, animals were euthanized with CO2, and blood samples were collected in heparinized microtubes by cardiac puncture. Brains were dissected and immediately flash-frozen (−80 °C). Blood samples were spun at 2000g for 15 min, and plasma was removed and stored at −80 °C until analysis (as described below).
Quantitation of triazole analogs 14, 15, 17, and 18 was performed using liquid chromatography with tandem mass spectrometry (LC/MS-MS) methods. Briefly, calibration standards were prepared using respective tissue (naïve plasma and brain) with additions of the test compounds. For quantifying the test compounds in the pharmacokinetic samples, plasma samples (20 μL) were processed using a single liquid extraction method by addition of 100 μL of acetonitrile containing internal standard (losartan: 0.5 μM), followed by vortex-mixing for 30 s and then centrifugation at 10,000g for 10 min at 4 °C. Brain tissues were diluted 1:5 w/v with acetonitrile containing losartan (0.5 μm) and homogenized, followed by vortex-mixing and centrifugation at 10,000g for 10 min at 4 °C. A 50 μL aliquot of the supernatant was diluted with 50 μL of water and transferred to 250 μL polypropylene autosampler vials sealed with Teflon caps. Two μL of the sample was injected into the LC/MS/MS system for analysis. Chromatographic analysis was performed using an Accela ultra high-performance system consisting of an analytical pump and an autosampler coupled with a TSQ Vantage mass spectrometer. […] The mobile phase consisted of 0.1% formic acid in acetonitrile and 0.1% formic acid in water with gradient elution, starting with 10% organic phase (from 0 to 1 min) linearly increasing to 95% (from 1 to 2 min), and re-equilibrating to 10% by 3 min. The total run time for each analyte was 3.5 min. Pumps were operated at a flow rate of 0.4 mL/min. […] Plasma concentrations (nmol/mL) as well as brain tissue concentrations (nmol/g) were determined and plots of mean plasma concentration versus time were constructed. Noncompartmental analysis modules in Phoenix WinNonlin version 7.0 (Certara USA, Inc., Princeton, NJ) were used to quantify exposures (AUC0−t) and half-life (t1/2).

D1 = target: T3, D1 (Homo sapiens, UniProt P21728); experiment: PDSP primary screen and secondary assay, D1; assay type: binding; settings: 10 µM compound
T3 construct: Psychoactive Drug Screening Program (PDSP)
Source text: as §4, §5

[6] = antagonist mode, EC80 dopamine (1 μM), normalized to spiperone
[7] = brain, 5 mg/kg, brain, read-out: half-life (h) brain (converted)
[8] = plasma and brain, 5 mg/kg, tissue not specified, read-out: half-life (converted)
[9] = plasma, 5 mg/kg, plasma, read-out: half-life (h) plasma (converted)
[10] = brain, read-out: Tmax (h) brain
[11] = plasma, read-out: Tmax (h) plasma

Sequence of human D3R (P35462 whole entry): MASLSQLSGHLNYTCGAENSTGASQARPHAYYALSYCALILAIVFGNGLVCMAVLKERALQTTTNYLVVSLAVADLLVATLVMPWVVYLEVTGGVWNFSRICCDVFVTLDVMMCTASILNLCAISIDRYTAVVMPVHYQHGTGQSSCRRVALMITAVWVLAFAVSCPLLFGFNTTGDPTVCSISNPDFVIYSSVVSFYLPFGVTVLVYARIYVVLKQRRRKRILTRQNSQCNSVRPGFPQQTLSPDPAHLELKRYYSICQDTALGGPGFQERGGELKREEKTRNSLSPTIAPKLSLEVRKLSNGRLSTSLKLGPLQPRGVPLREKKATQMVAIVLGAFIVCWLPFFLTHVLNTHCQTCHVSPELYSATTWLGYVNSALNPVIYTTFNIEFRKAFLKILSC
Sequence of human D2R long isoform (P14416 whole entry, canonical isoform): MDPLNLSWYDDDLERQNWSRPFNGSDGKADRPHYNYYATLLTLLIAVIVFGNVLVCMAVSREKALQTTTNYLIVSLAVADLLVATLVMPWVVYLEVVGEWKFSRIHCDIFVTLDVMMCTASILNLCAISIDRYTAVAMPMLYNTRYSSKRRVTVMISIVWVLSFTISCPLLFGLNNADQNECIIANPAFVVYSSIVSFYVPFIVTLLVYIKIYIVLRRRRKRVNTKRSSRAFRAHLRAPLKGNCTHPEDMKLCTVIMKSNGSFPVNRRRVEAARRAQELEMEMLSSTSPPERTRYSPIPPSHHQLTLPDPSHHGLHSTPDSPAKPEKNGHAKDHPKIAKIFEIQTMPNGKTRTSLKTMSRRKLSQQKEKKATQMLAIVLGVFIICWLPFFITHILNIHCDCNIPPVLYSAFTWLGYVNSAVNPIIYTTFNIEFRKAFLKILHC
T3 sequence (P21728 whole entry): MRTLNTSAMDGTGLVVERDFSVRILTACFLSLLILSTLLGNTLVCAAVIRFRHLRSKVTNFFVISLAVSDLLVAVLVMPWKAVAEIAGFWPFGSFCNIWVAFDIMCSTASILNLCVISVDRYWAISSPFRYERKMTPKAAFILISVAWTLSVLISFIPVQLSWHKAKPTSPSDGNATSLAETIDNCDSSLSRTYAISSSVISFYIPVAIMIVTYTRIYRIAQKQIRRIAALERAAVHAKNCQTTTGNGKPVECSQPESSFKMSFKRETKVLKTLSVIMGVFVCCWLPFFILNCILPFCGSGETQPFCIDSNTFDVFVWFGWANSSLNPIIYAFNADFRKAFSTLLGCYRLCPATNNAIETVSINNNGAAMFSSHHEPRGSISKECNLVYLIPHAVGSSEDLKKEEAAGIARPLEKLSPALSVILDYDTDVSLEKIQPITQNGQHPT
T2 sequence (P21918 whole entry): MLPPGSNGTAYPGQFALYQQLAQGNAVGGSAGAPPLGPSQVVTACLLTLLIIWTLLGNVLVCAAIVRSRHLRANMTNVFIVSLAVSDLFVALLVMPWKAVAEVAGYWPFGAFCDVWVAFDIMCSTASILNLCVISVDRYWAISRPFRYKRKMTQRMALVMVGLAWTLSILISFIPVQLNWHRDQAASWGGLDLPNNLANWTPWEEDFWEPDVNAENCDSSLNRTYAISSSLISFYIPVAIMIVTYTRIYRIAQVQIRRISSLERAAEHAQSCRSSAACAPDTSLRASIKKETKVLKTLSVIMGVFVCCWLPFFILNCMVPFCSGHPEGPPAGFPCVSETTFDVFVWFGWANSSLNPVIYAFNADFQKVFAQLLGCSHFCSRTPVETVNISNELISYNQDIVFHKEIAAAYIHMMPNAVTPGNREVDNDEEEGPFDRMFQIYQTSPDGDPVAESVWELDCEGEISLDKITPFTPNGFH

Structure (SMILES)	EC50 (human D4R [1])	IC50 (human D4R [1])	D4R Ant. (%) (human D4R [1])	Emax (human D4R [1])	half-life [2]	EC50 (human D4R [3])	IC50 (human D4R [3])	D4R average activity at the highest tested dose (human D4R [3]; agonist mode)	D4R Ant. (%) (human D4R [3])	EC50 (human D2R long isoform)	IC50 (human D2R long isoform)	D2R Ant (%) (human D2R long isoform; [6])	Emax (human D2R long isoform)	half-life [4]	EC50 (human D3R)	IC50 (human D3R)	D3R Ant. (%) (human D3R)	Emax (human D3R)	inhibition at 10 µM (D5)	Kp ([5]; 5 mg/kg)	also measured
Cc1cccc(-n2cc(CN3CCN(c4ncccn4)CC3)nn2)c1 [Compound 16, 2-(4-((1-(m-Tolyl)-1H-1,2,3-triazol-4-yl)methyl)-piperazin-1-yl)pyrimidine]	0.00768 ± 0.00188 µM	0.0679 ± 0.0113 µM	45 ± 3%	39 ± 7%	40.1 ± 1.91 min	> 100 µM	0.14 ± 0.035 µM	ND (14% at 100 μM)	85.2 ± 2.4%	6.87 ± 2.5 µM	19 µM	73.2 ± 4.6%	25.3 ± 4.9%	68.1 ± 9.51 min	> 100 µM	> 10 µM	105 ± 4%	75 ± 14%			D4R Emax (%) (human D4R [3]; agonist mode, in comparison to dopamine): did not show partial agonist activity
Cc1cccc(-n2cc(CN3CCN(c4ccccn4)CC3)nn2)c1 [Compound 15, 1-(Pyridin-2-yl)-4-((1-(m-tolyl)-1H-1,2,3-triazol-4-yl)-methyl)-piperazine]	0.00529 ± 0.00139 µM	0.0576 ± 0.00544 µM	40 ± 1%	43 ± 6%	61.4 ± 7.27 min	> 100 µM	0.31 ± 0.049 µM	ND (14% at 100 μM)	82.8 ± 3.3%	> 100 µM	9.05 ± 2.5 µM	87.7 ± 2.6%	16.5 ± 9.8%	32.9 ± 1.16 min	3.6 ± 0.48 µM			110 ± 29%	1.76%	0.72	half-life [5, 7]: 1.02 h; half-life [5, 8]: > 1.1 h; half-life [5, 9]: 1.09 h; Tmax [5, 10]: 0.25 h; AUC ([5]; plasma): 2.65 ± 0.46 µM·h; Cmax ([5]; plasma): 3.28 ± 1.26 µM; Tmax [5, 11]: 0.25 h; AUC brain ([5]; brain): 1.91 ± 0.31 nmol·h/g; Cmax brain ([5]; brain): 1.83 ± 0.68 nmol/g; peak in vivo brain concentrations expected [5]: greater than 1.8 μM; inhibition at 10 µM (D1): 2.16%
O=C(CCCN1CCC2(CC1)C(=O)NCN2c1ccccc1)c1ccc(F)cc1 [Spiperone, reference compound]			100 ± 0%						100 ± 0%												D2R Ant (%) (human D2R long isoform): 100 ± 0%
CCc1cccc(-n2cc(CN3CCN(c4ccccn4)CC3)nn2)c1 [Compound 19, 1-((1-(3-Ethylphenyl)-1H-1,2,3-triazol-4-yl)methyl)-4-(pyridin-2-yl)piperazine]					37.5 ± 0.68 min									28 ± 0.56 min							
Cc1cccc(-n2cc(CN3CCC(c4ccccc4)CC3)nn2)c1 [Compound 14, 4-Phenyl-1-((1-(m-tolyl)-1H-1,2,3-triazol-4-yl)methyl)-piperidine]	0.0445 ± 0.0174 µM	0.0846 ± 0.0156 µM	63 ± 2%	30 ± 5%	63.3 ± 2.98 min	> 100 µM		ND (12% at 100 μM)	93.3 ± 5.9%		6.09 ± 1.34 µM	112 ± 3%		13.4 ± 0.44 min		6.3 ± 2.1 µM	81.6 ±0.3%		16%	0.76	half-life [5, 7]: 0.4 h; half-life [5, 8]: ≤ 0.4 h; half-life [5, 9]: 0.37 h; Tmax [5, 10]: 0.25 h; AUC ([5]; plasma): 1.56 ± 0.2 µM·h; Cmax ([5]; plasma): 2.89 ± 0.57 µM; Tmax [5, 11]: 0.25 h; AUC brain ([5]; brain): 1.19 ± 0.10 nmol·h/g; Cmax brain ([5]; brain, 5 mg/kg): 2.16 ± 0.21 nmol/g; peak in vivo brain concentrations expected [5]: greater than 2.8 μM; inhibition at 10 µM (D1): 20.2%
